From patent US8940774B2, “Tris-Quaternary Ammonium Salts and Methods for Modulating Neuronal Nicotinic Acetylcholine Receptors” (University of Kentucky Research Foundation, priority 2005, dated 2015)

How the values were obtained:
[1] = molecular target: T1, Rat Striatal Nicotinic Receptors (Rattus norvegicus, UniProt P09483+P12390); experiment: Inhibition of [3H]Nicotine (NIC) binding assay, rat striatal membranes; conditions: % inhibition at 100 nM concentration of analog, 3 nM [3H]NIC
T1 construct: from tissue; host or cells: rat striatal membranes
Procedure: Striata from two rats were dissected, pooled, and homogenized with a Tekmar polytron in 10 vol of ice-cold modified Krebs-HEPES buffer (20 mM HEPES, 118 mM NaCl, 4.8 mM, KCl, 2.5 mM CaCl2, 1.2 mM MgSO4, adjusted to pH 7.5). The homogenates were incubated at 37° C. for 5 minutes and centrifuged at 15,000 g for 20 minutes. The pellet was resuspended in 10 volumes of ice-cold MilliQ water, incubated for 5 minutes at 37° C., and centrifuged at 15,000 g for 20 minutes. The second pellet was then resuspended in 10 volumes of fresh ice-cold 10% Krebs-HEPES buffer, incubated at 37° C., and centrifuged at 15,000 g for 20 minutes. The latter sequence of resuspension, incubation and centrifugation was repeated. The pellet was frozen under fresh 10% Krebs-HEPES buffer and stored at −40° C. until assay. Upon assay, the pellet was resuspended in Krebs-HEPES buffer, incubated at 37° C. for 5 minutes, and centrifuged at 15,000 g for 20 minutes. The final pellet was resuspended in 3.6 mL ice-cold MilliQ water which provided for approximately 200 μg protein per 100 μL aliquot. Competition assays were performed in duplicate in a final volume of 200 μL Krebs-HEPES buffer containing […] Tris buffer (pH 7.5 at 4° C.). Reactions were initiated by addition of 100 μL of membrane suspension to 3 nM [^3H]NIC (50 μL) and one of at least nine concentrations of analog (50 μL). After a 90 minute incubation at 4° C., reactions were terminated by dilution of the samples with 3 mL of ice-cold Krebs-HEPES buffer followed immediately by filtration through Whatman GF/B glass fiber filters (presoaked in 0.5% polyethyleneimine) using a Brandel Cell Harvester. Filters were rinsed three times with 3 mL of ice-cold Krebs-HEPES buffer, transferred to scintillation vials, and 5 mL scintillation cocktail (Research Products international Corp., Mt. Prospect, Ill.) added. Nonspecific binding determined in triplicate was defined as binding in the presence of 10 μM NIC. Binding parameters were determined using the weighted, least squares non-linear regression. The tris-quaternary ammonium salts were evaluated for their ability to displace [^3H]NIC binding from rat striatal membranes.
Data are % inhibition at 100 nM concentration of analog for at least 1-3 independent experiments. Specific binding in the [^3H]NIC binding assay is calculated at the difference between the total binding of [^3H]NIC and nonspecific binding in the presence of 10 μM cold nicotine. Specific binding for the [^3H]MLA binding assay is calculated as the difference between the total binding of 2.5 nM [^3H]MLA to the receptors alone and its nonspecific binding in the presence of 1 μM cold MLA. Analog-induced inhibition of nicotine-evoked [^3H]DA release is calculated as a percent of that in the absence of analog.

[2] = molecular target: T2, α7 nicotinic receptor subtype expressed in Xenopus oocytes (Rattus norvegicus, UniProt Q05941); experiment: Inhibition of ACh evoked current through nicotinic receptors expressed in Xenopus oocytes (α7); assay type: cell-based; conditions: co-application with acetylcholine; compared with α4β2, α3β2, α3β4; FIGS. 1-3
T2 construct: expressed in transfected cells; host or cells: Xenopus laevis oocytes injected with subunit cRNA
Procedure: Rat nicotinic receptor cDNAs clones were linearized and purified, and RNA transcripts were prepared in vitro using the appropriate mMessage mMachine kit. Mature (>9 cm) female Xenopus laevis African toads (Nasco, Ft. Atkinson, Wis.), housed in the Division of Lab Animal Resources at the University of Florida were used as a source of oocytes. Prior to surgery, frogs were anesthetized by placing the animal in a 1.5 g/L solution of MS222 for 30 minutes. Oocytes were removed from an incision made in the abdomen. In order to remove the follicular cell layer, harvested oocytes were treated with 1.25 mg/mL collagenase for 2 hours at room temperature in calcium-free Barth's solution (88 mM NaCl, 1 mM KCl, 2.38 mM NaHCO3, 0.82 mM MgSO4, 15 mM HEPES, pH 7.6, 0.1 mg/mL gentamicin sulfate). Subsequently, stage 5 oocytes were isolated and injected with 5-20 ng in 50 nL each of the appropriate subunit cRNAs. Recordings were made 2 to 15 days after injection.
Electrophysiology experiments were conducted using OpusXpress 6000A (Axon instruments, Union City, Calif.), or manual oocyte two-electrode voltage-clamp systems as previously reported (Stokes et al., 2004). […]
(§1) Each oocyte received two initial control applications of ACh, then a nicotine or analog application, and then a follow-up control application of ACh. […] Responses to each nicotine or analog application were calculated relative to the preceding ACh control responses in order to normalize the data, compensating for the varying levels of channel expression among the oocytes. […] Responses for α7 receptors were calculated as net charge (Papke et al., 2002). For subtypes other than α7, responses were calculated from the peak current amplitudes. Means and standard errors (SEM) were calculated from the normalized responses of at least four oocytes for each drug concentration. […]
(§2) For concentration-response relations, data derived from net-charge analyses were plotted using Kaleidagraph 3.0.2 (Abelbeck Software; Reading, Pa.) and curves were generated from the Hill equation […]

[3] = molecular target: T3, α3β4 nicotinic receptor subtype expressed in Xenopus oocytes (Rattus norvegicus, UniProt P04757+P12392); experiment: Inhibition of ACh evoked current through nicotinic receptors expressed in Xenopus oocytes (α3β4); assay type: cell-based; conditions: co-application with acetylcholine; FIG. 2
T3 construct: expressed in transfected cells; host or cells: Xenopus laevis oocytes injected with subunit cRNAs
Procedure: Rat nicotinic receptor cDNAs clones were linearized and purified, and RNA transcripts were prepared in vitro using the appropriate mMessage mMachine kit. Mature (>9 cm) female Xenopus laevis African toads (Nasco, Ft. Atkinson, Wis.), housed in the Division of Lab Animal Resources at the University of Florida were used as a source of oocytes. Prior to surgery, frogs were anesthetized by placing the animal in a 1.5 g/L solution of MS222 for 30 minutes. Oocytes were removed from an incision made in the abdomen. […]
as §1, §2

T2 sequence (Q05941 23-502): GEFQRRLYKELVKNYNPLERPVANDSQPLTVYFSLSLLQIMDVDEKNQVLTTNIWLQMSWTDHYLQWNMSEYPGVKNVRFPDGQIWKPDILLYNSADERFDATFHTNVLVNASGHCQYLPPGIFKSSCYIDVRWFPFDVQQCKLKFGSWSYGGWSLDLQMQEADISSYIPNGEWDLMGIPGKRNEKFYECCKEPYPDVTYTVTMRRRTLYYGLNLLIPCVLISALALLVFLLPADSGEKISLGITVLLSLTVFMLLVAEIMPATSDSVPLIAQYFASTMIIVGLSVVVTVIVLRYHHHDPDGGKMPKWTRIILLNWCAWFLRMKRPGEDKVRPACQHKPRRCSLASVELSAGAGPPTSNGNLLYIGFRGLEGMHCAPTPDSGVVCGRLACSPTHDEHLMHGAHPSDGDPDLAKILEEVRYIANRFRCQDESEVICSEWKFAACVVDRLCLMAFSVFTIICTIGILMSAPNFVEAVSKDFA
T1 sequence (P09483 31-630): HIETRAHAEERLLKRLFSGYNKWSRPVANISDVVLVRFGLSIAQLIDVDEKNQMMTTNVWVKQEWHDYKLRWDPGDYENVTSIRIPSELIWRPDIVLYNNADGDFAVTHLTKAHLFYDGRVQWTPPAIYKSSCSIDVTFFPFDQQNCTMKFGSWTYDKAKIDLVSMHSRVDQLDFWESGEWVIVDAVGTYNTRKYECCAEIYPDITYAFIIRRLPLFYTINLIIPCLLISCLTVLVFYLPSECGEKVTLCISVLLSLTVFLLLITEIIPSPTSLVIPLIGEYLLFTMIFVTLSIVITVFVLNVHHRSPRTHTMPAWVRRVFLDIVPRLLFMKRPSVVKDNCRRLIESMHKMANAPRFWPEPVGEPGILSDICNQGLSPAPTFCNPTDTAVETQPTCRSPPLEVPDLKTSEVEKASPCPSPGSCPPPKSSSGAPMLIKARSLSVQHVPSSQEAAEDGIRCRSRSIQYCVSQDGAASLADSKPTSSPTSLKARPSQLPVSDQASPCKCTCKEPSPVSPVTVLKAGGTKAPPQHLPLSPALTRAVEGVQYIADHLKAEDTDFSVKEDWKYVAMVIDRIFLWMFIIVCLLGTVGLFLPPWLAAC
T1 sequence (P12390 25-500): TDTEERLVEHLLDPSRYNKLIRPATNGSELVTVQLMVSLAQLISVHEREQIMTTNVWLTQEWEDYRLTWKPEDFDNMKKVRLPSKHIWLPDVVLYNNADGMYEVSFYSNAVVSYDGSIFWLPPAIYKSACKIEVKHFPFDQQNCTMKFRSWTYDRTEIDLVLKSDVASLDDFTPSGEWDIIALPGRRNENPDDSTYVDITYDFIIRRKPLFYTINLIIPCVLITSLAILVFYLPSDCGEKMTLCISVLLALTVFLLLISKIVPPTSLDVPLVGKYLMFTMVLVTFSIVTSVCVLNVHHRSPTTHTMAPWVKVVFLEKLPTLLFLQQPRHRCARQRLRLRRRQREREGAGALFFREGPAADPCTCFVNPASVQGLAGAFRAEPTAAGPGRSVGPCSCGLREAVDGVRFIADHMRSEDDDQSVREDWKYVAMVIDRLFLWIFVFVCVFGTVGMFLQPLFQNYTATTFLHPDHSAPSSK
T3 sequence (P12392 21-495): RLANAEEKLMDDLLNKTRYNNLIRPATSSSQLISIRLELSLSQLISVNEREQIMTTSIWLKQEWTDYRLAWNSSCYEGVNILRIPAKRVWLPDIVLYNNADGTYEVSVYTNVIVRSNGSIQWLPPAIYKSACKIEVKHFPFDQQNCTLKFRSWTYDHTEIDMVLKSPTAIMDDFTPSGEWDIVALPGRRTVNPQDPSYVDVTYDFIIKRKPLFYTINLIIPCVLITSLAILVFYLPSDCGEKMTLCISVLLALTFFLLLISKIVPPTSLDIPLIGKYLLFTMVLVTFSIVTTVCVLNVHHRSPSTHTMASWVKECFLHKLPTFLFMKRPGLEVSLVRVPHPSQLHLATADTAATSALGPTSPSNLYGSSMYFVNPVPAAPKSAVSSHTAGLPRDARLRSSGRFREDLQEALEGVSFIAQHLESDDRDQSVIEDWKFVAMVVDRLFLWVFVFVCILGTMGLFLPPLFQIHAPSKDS
T3 sequence (P04757 26-499): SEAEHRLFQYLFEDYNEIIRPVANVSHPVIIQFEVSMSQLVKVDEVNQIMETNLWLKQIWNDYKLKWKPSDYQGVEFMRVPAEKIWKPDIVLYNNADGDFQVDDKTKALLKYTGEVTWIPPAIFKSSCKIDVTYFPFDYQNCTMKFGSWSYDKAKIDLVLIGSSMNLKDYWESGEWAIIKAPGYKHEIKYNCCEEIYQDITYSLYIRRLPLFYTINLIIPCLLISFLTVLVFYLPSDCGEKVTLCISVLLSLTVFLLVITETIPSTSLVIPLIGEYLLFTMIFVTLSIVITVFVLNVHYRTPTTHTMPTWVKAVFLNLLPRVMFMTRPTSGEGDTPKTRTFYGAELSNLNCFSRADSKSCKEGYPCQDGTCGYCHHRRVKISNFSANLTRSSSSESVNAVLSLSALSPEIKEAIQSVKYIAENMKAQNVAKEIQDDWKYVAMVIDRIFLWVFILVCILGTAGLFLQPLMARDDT

| SMILES | inhibition at 0.1 µM [1] [%] | inhibition of ACh response at α7 nicotinic receptor subtype (concentration-response, in words) [2] | inhibition of ACh response at α3β4 nicotinic receptor subtype (in words) [3] |
| --- | --- | --- | --- |
| CCCCc1ccc[n+](CCCC#Cc2cc(C#CCCC[n+]3cccc(CCCC)c3)cc(C#CCCC[n+]3cccc(CCCC)c3)c2)c1 [GZ551A, 1,3,5-tris-[5-(3-butyl-pyridinium)-pent-1-ynyl]-benzene tribromide] | 6.8 ± 2 | potent and selective inhibitor |  |
| CN1CCC[C@H]1c1ccc[n+](CCCC#Cc2cc(C#CCCC[n+]3cccc([C@@H]4CCCN4C)c3)cc(C#CCCC[n+]3cccc([C@@H]4CCCN4C)c3)c2)c1 [GZ551B, 1,3,5-tris-{5-[3-(1-methyl-2-S-pyrrolidinyl)pyridinium]-pent-1-ynyl}-benzene tribromide] | 44 ± 3.1 | most potent as an inhibitor of the α7 nicotinic receptor subtype, but was not selective | potently inhibited |
| CN1CCC[C@H]1c1ccc[n+](CCCCCc2cc(CCCCC[n+]3cccc([C@@H]4CCCN4C)c3)cc(CCCCC[n+]3cccc([C@@H]4CCCN4C)c3)c2)c1 [GZ558C, 1,3,5-tris-{5-[3-(1-methyl-2-S-pyrrolidinyl)pyridinium]-pentyl}-benzene tribromide] | 81 ± 2.3 | potent and selective inhibitor |  |
